From patent US20100179061A1, “PLANT GROWTH PROMOTER” (Nisshin Pharma Inc., priority 2007, published 2010)

Columns and labels:
[1] = Precipitation of coenzyme Q10 in the growth-promoting agent; type: physicochemical; conditions: growth-promoting agent diluted with city water, up to 100 ppm
Procedure: First, 1.25 g of water-solubilized coenzyme Q10 (Aqua Q10-P40 containing coenzyme Q10 in an amount of 40% by mass manufactured by Nisshin Pharma Inc.) was diluted using 500 ml of city water to prepare a solution of 1000 ppm of coenzyme Q10. This was diluted with city water to prepare a growth-promoting agent in a solubilized form containing coenzyme Q10 (sometimes described as CoQ10) in the amount of 10 ppm or 100 ppm.

radish sprouts = assay: Growth promotion effect test I of water-solubilized coenzyme Q10; type: in vivo; conditions: high concentration of 100 ppm of coenzyme Q10
Procedure: A Kimtowel was matted on a petri dish, 100 mL of a growth-promoting agent in Example 1 was poured thereon, and 20 seeds of radish sprouts (produced by Noguchi Seed and Seedling Laboratory) were placed thereon. This petri dish was stored at room temperature under a light shielding condition. After 7 days, the sprouts were collected, and a total length and a root length of the radish sprouts were measured. Data as the control was a result obtained by measuring the total length of the plant in the same way as described above, except that city water was used in place of the growth-promoting agent (data as the control described below was a result obtained by the same way described above). Numerical values in the Table represent a mean of measured values unless otherwise explained (Numerical values in the Table described below represent the same described above). A growth rate was calculated based on the following formula (Numerical A growth rate was calculated by the same way described above): [(A−B)/B]×100, wherein A denotes a measured value of the total length of the plant cultivated in the presence of the growth-promoting agent containing coenzyme Q10, and B denotes a measured value of the total length of the plant as the control plant.

Crown daisy = assay: Growth promotion effect test IV of water-solubilized coenzyme Q10; type: in vivo; conditions: growth-promoting agent in Example 3 (CoQ10 1 ppm), after 7 days
Procedure: (§1) A required number of petri dishes were prepared, the Kimtowel was matted on the each petri dish, 100 mL of the growth-promoting agent in Example 3 was poured thereon, and 40 seeds (produced by Noguchi Seed and Seedling Laboratory) of the plants described in Table 4 were placed thereon. These petri dishes were stored at room temperature under the light shielding condition. After 7 days, sprouts were collected, and the total length of the plants described in Table 4 was measured. The growth rate was calculated based on the following formula (A growth rate was calculated by the same way described above): [(A−B)/B]×100, wherein A denotes a measured value of the total length of the plant cultivated in the presence of the growth-promoting agent containing CoQ10, and B denotes the measured value of the total length of the plant as the control.

Spinach = assay: as above; type: in vivo; conditions: growth-promoting agent in Example 3 (CoQ10 1 ppm), after 7 days
Procedure: as §1

Komatsuna = assay: as above; type: in vivo; conditions: growth-promoting agent in Example 3 (CoQ10 1 ppm), after 7 days
Procedure: as §1

Burdock = assay: as above; type: in vivo; conditions: growth-promoting agent in Example 3 (CoQ10 1 ppm), after 7 days
Procedure: as §1

Wheat = assay: Growth promotion effect test V of water-solubilized coenzyme Q10; type: in vivo; conditions: 30 seeds, same way as test IV (CoQ10 1 ppm)
Procedure: (§2) A required number of petri dishes were prepared, the Kimtowel was matted on the each petri dish, 100 mL of the growth-promoting agent in Example 3 was poured thereon, and 40 seeds (produced by Noguchi Seed and Seedling Laboratory) of the plants described in Table 4 were placed thereon. These petri dishes were stored at room temperature under the light shielding condition. After 7 days, sprouts were collected, and the total length of the plants described in Table 4 was measured. The required number of petri dishes was prepared, and the growth-promoting effect on seeds (produced by Noguchi Seed and Seedling Laboratory) of the plants described in Table 5 was examined in the same way as in Growth promotion effect test IV of water-solubilized coenzyme Q10. 30 seeds of wheat were examined. Buckwheat and snow peas were stored at room temperature under the light shielding condition, and collected after 8 days. Spinach was stored at room temperature under the light shielding condition, and collected after 9 days.

Green onions = assay: as above; type: in vivo; conditions: same way as test IV (CoQ10 1 ppm)
Procedure: as §2

Chives = assay: as above; type: in vivo; conditions: same way as test IV (CoQ10 1 ppm)
Procedure: as §2

Buckwheat = assay: as above; type: in vivo; conditions: same way as test IV (CoQ10 1 ppm)
Procedure: as §2

Snow peas = assay: as above; type: in vivo; conditions: same way as test IV (CoQ10 1 ppm)
Procedure: as §2

[2] = room temperature, light shielding
[3] = room temperature, light shielding, collected after 8 days

precipitation of coenzyme Q10 [1]: not precipitated
concentration disorder (radish sprouts): without causing a concentration disorder
SMILES: COC1=C(OC)C(=O)C(C/C=C(\C)CC/C=C(\C)CC/C=C(\C)CC/C=C(\C)CC/C=C(\C)CC/C=C(\C)CC/C=C(\C)CC/C=C(\C)CC/C=C(\C)CCC=C(C)C)=C(C)C1=O [CoQ10, coenzyme Q10]
Growth increase rate (Crown daisy; versus control): 17.9%
Measured value (total length) (Crown daisy; [2]): 5.46 cm
Growth increase rate (Spinach; versus control): 10.5%
Measured value (total length) (Spinach; [2]): 4.22 cm
Growth increase rate (Komatsuna; versus control): 15.6%
Measured value (total length) (Komatsuna; [2]): 8.87 cm
Growth increase rate (Burdock; versus control): 12.7%
Measured value (total length) (Burdock; [2]): 4.96 cm
Measured value (total length) (Wheat; [2]): 14.16 cm
Growth increase rate (Wheat; versus control): 44.6%
Measured value (total length) (Green onions; [2]): 3.02 cm
Growth increase rate (Green onions; versus control): 19.4%
Measured value (total length) (Chives; [2]): 2.90 cm
Growth increase rate (Chives; versus control): 22.4%
Growth increase rate (Buckwheat; after 8 days, versus control): 12.8%
Measured value (total length) (Buckwheat; [3]): 25.01 cm
Growth increase rate (Snow peas; after 8 days, versus control): 17.1%
Measured value (total length) (Snow peas; [3]): 29.31 cm
